The record followed here is patent US20040192699A1, “Optic nerve protecting agents containing alpha1 receptor blocker as active ingredient” (Santen Pharmaceutical Co., Ltd., priority 2001, published 2004).

Counter-ions that a name gives are not always drawn.

Test [1] relates to rat fetal retinal nerve cells in culture. Put plainly: Death of rat fetal retinal nerve cells in culture induced by serum elimination (trypan blue dye exclusion; TUNEL method). To be noted: serum elimination + test compound, 24 hours, average. The arrangement: dose or concentration left out as unconfirmed. The class given is cell-based. As to the method:
(2) The action of the a, receptor blocker on the death of rat fetal retinal nerve cells in culture as induced by serum elimination
Retinal cells were taken out of a rat fetus (age of E18 days) and isolated, then cultured in an Eagle's basal culture medium containing 10% bovine fetus serum on a polylysine-coated glass cover slip for 7 days (37° C., 5% CO2/95% air). On the eighth day and thereafter, the cells were cultured in an Eagle's basal culture medium containing 10% horse serum. On the sixth day of the cultivation, cytosine arabinoside (10 μM) was added to suppress the growth of non-neuronal cells. […] Subsequently, toxicity was determined by the trypan blue dye exclusion method. Specifically, the cells were stained with 1.5% trypan blue solution for 10 minutes, fixed in 10% neutral formalin solution and rinsed with physiological saline. Subsequently, the cells were counted with a phase contrast microscope. […] Based on the rate of the live cells to the total cells (200 or more), the survival rate of the culture cells was determined. Using the TUNEL method, additionally, the TUNEL-positive cells (apoptosis cells) increasing due to the serum elimination and the TUNEL-negative cells (live cells) were counted, to calculate the rate of the TUNEL-positive cells to the total cells. […]

The test system is the same in test [2]. Put plainly: Death of rat fetal retinal nerve cells in culture induced by glutamate addition (trypan blue dye exclusion). The class given is cell-based. To be noted: 10 min, then 1 h drug-free, average. As for the experimental part: (1) The action of the α1 receptor blocker on the death of rat fetal retinal nerve cells in culture as induced by glutamate addition
Retinal cells were taken out of a rat fetus (age of E18 days) and isolated, then cultured in an Eagle's basal culture medium containing 10% bovine fetus serum on a polyethylene imine-coated plastic cover slip for 7 days (37° C., 5% CO2/95% air). On the eighth day and thereafter, the cells were cultured in an Eagle's basal culture medium containing 10% horse serum. On the sixth day of the cultivation, cytosine arabinoside (10 μM) was added to suppress the growth of non-neuronal cells. On the eleventh day of the cultivation, the cells were cultured in a serum-free Eagle's basal culture medium supplemented with glutamate (1 mM) and an a, receptor blocker, for 10 minutes. Then, the cells were transferred to a serum-free Eagle's basic culture medium with no content of glutamate and an α1 receptor blocker, and cultured for one hour. Subsequently, toxicity was determined by the trypan blue dye exclusion method. Specifically, the cells were stained with 1.5% trypan blue solution for 10 minutes, fixed in 10% neutral formalin solution and rinsed with physiological saline. Subsequently, the cells were counted with a phase contrast microscope. The cells stained with trypan blue were defined as dead cells, while the cells never stained were defined as live cells. Based on the rate of the live cells to the total cells (200 or more), the survival rate of the culture cells was determined. A group with the addition of 1 mM glutamate alone and a group with the addition of both 1 mM glutamate and an α1 receptor blocker were defined as “1 mM glutamate single-addition group” and “group of 1 mM glutamate+α1 receptor blocker addition”, respectively. […] At this experiment, bunazosin hydrochloride, prazosin hydrochloride, terazosin hydrochloride and naftopidil hydrochloride were used as such α1 receptor blockers.

[3] abbreviates: 1 mM glutamate + 10 μM test compound.
[4] abbreviates: 1 mM glutamate + 0.1 μM test compound.

Regarding `CCCC(=O)N1CCCN(c2nc(N)c3cc(OC)c(OC)cc3n2)CC1` [bunazosin HCl, bunazosin hydrochloride], the “Rate (%) of TUNEL-positive cells” value in test [1] (TUNEL method) was 13%. The results for the “Survival rate (%) of retinal nerve cells in culture” value (“Survival rate (%)” below) in test [1], in test [2] (setting [3]) and in test [2] (1 mM glutamate + 100 μM test compound) were 80%, 55.2% and 55.9%, respectively.

As to `COc1ccccc1N1CCN(CC(O)COc2cccc3ccccc23)CC1` (stereo not shown) [naftopidil HCl, naftopidil hydrochloride], the results for the “Survival rate (%)” value in test [2] (setting [4]) and in test [2] (setting [3]) were 59.2% and 68.9%, respectively.

`COc1cc2nc(N3CCN(C(=O)c4ccco4)CC3)nc(N)c2cc1OC` [prazosin HCl, prazosin hydrochloride]: the “Survival rate (%)” value is reported as 65.2% in test [2] (1 mM glutamate + 1 μM test compound) and 67.1% in test [2] (setting [3]).

For `COc1cc2nc(N3CCN(C(=O)C4CCCO4)CC3)nc(N)c2cc1OC` (stereo not shown) [terazosin HCl, terazosin hydrochloride], the “Survival rate (%)” value is reported as 69.8% in test [2] (1 mM glutamate + 0.01 μM test compound) and 70.7% in test [2] (setting [4]).
